Measurements published in US12022844B2, “Nutritional composition, food/drink composition using nutritional composition, and modified milk powder using nutritional composition” (priority 2018, dated 2024).

Legend:
Assay in all cases: Single bacterial culturing with HMO as sugar source, OD650
[1] = system: Bifidobacterium peseudocatenulatum ATCC27919; type: cell-based, Bifidobacterium pseudocatenulatum; details: ATCC 27919^T, sugar source 2%, 8 h, Table 6
Experimental: (§1) A10% solution of glucose (manufactured by Nakarai Tesque Inc.), and 2′-FL ((≥95%) Funakoshi, available from sigma), and LNnT (manufactured by ELICITYL) as examples of HMOs was prepared with ion exchanged water, and was subjected to sterile filtration using Millex-GV (SLGV033RS).
Lactobacilli MRS Broth (BD) (0.05% L-Cysteine Hydrochloride for Bacteria of the genus Bifidobacterium) was added to strains of Table 1 below (bacteria belonging to Bifidobacterium bifidum) and Table 2 below. After a sterilization treatment, 3% of the bacterial solution was inoculated, and anaerobically cultured (pre-pre cultured) at 37° C. for 16 h. […]
OD650 was measured from each well in the plates in the above (4) and the above (5) before (0 h) culturing and after (8 h) culturing, by MICROPLATE READER SH-9000 (manufactured by CORONA ELECTRIC). […] After the DNA extraction, the number of proliferating bacteria of Bifidobacteria/lactobacilli was analyzed by using the bacterial species-specific primer noted in Table 4, by a quantitative PCR method (see “Structural analysis of intestinal flora”—analysis of bacterial flora in human feces using quantitative PCR—by Kouichi Watanabe, Enterobacteriological journal, 20:35-42, 2006).
Regarding strains in Table 2, each strain was cultured as a single bacterium by 2′-FL or LNnT (HMOs) as a sugar source, and OD650 was measured. […]

[2] = system: Bifidobacterium longum subsp longum ATCC15707; type: cell-based; details: ATCC 15707^T, sugar source 2%, 8 h, Table 6
Experimental: as §1
(§2) Lactobacilli MRS Broth (BD) (0.05% L-Cysteine Hydrochloride for Bacteria of the genus Bifidobacterium) was added to strains of Table 1 below (bacteria belonging to Bifidobacterium bifidum) and Table 2 below. After a sterilization treatment, 3% of the bacterial solution was inoculated, and anaerobically cultured (pre-pre cultured) at 37° C. for 16 h.
(§3) The following day, 1% glucose was added to a modified BL agar medium (“Studies on Bifidobacteria” by Tomotari Mitsuoka, p. 306, Japan Bifidus Foundation, issued in 1994) noted in Table 3, for preparation. After a sterilization treatment, 3% of the pre-pre cultured bacterial solution was inoculated, and anaerobically pre-cultured (pre-cultured) at 37° C. for 12 h.
(§4) The pre-cultured bacterial solution was collected and washed once with a sterile physiological saline solution. Then, mass-up was performed to an equal volume with the modified BL agar medium (“Studies on Bifidobacteria” by Tomotari Mitsuoka, p. 306, Japan Bifidus Foundation, issued in 1994) noted in Table 3 to prepare a suspended bacterial solution.
(§5) The modified BL agar medium (“Studies on Bifidobacteria” by Tomotari Mitsuoka, p. 306, Japan Bifidus Foundation, issued in 1994) noted in Table 3 was prepared at a capacity of 60%, and was subjected to an autoclave sterilization treatment. Then, 40% of each sugar solution prepared in (1) was aseptically added so as to prepare a medium with a sugar concentration of 4%.
(§6) The medium prepared in the above (3) was dispensed at a capacity that is half the capacity for culturing in a 96-well plate, and the bacterial solution prepared in the above (2) was dispensed at a remaining half capacity such that the bacterial solution had 6%. Then, a final sugar concentration was set to 2%. The plate into which the bacterial solution was dispensed was anaerobically cultured at 37° C. for 8 h.
(§7) OD650 was measured from each well in the plates in the above (4) and the above (5) before (0 h) culturing and after (8 h) culturing, by MICROPLATE READER SH-9000 (manufactured by CORONA ELECTRIC). After turbidity measurement, microbial cells were collected, and DNA extraction was performed. After the DNA extraction, the number of proliferating bacteria of Bifidobacteria/lactobacilli was analyzed by using the bacterial species-specific primer noted in Table 4, by a quantitative PCR method (see “Structural analysis of intestinal flora”—analysis of bacterial flora in human feces using quantitative PCR—by Kouichi Watanabe, Enterobacteriological journal, 20:35-42, 2006).
(§8) Regarding strains in Table 2, each strain was cultured as a single bacterium by 2′-FL or LNnT (HMOs) as a sugar source, and OD650 was measured. The results for 2′-FL are noted in Table 6 below, and the results for LNnT are noted in Table 7 below.

[3] = system: Bifidobacterium longum subsp infantis ATCC15697; type: cell-based; details: ATCC 156971, sugar source 2%, 8 h, Table 6
Experimental: as §1, §2, §3, §4, §5, §6, §7, §8

[4] = system: Bifidobacterium breve ATCC15700; type: cell-based; details: sugar source 2%, 8 h, Table 6
Experimental: as §1, §2, §3, §4, §5, §6, §7, §8

[5] = system: Bifidobacterium longum subsp longum BB536; type: cell-based; details: sugar source 2%, 8 h, Table 7
Experimental: as §1, §2, §3, §4, §5, §6, §7, §8

Compound | OD650 increase value [1] | OD650 increase value [2] | OD650 increase value [3] | OD650 increase value [4] | OD650 increase value [5]
2′-fucosyllactose [2′-FL] | 0.02 | 0.029 | 0.344 | 0.041 | –
CC(=O)N[C@H]1[C@H](O[C@H]2[C@@H](O)[C@@H](CO)O[C@@H](O[C@H]3[C@H](O)[C@@H](O)C(O)O[C@@H]3CO)[C@@H]2O)O[C@H](CO)[C@@H](O[C@@H]2O[C@H](CO)[C@H](O)[C@H](O)[C@H]2O)[C@@H]1O (mixture of isomers) [LNnT, lacto-N-neotetraose] | – | – | – | – | 0.053
